The text below walks through data of patent US20210040118A1, “IMMUNOMODULATORS, COMPOSITIONS AND METHODS THEREOF” (BETTA PHARMACEUTICALS CO., LTD, priority 2018, published 2021).

The target in this experiment is T1, PD-1/PD-L1 (Homo sapiens, UniProt Q9NZQ7).
T1 construct: Recombinant human PD-L1 protein (19-238) with a His-tag at the C-terminus; purchased AcroBiosystems PD1-H5229 (PD-L1); PD1-H5257 (PD-1)
Put plainly: PD-1/PD-L1 homogenous time-resolved fluorescence (HTRF) binding assay. Conditions: recombinant human PD-L1 (19-238) His-tag / human PD-1 (25-167) Fc tag, class symbols. The method in brief: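 Inhibitors were preincubated 40 min at 25°C with 10 nM His-tagged human PD-L1 (19-238) and 3 nM Fc-tagged human PD-1 (25-167) in PBS pH 7.4 containing Tween-20, BSA and 1% DMSO. After 60 min with europium anti-human IgG and anti-His-APC, 665/620 nm signal ratio gave IC50 via percent-control fit.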

T1 sequence (Q9NZQ7 19-238): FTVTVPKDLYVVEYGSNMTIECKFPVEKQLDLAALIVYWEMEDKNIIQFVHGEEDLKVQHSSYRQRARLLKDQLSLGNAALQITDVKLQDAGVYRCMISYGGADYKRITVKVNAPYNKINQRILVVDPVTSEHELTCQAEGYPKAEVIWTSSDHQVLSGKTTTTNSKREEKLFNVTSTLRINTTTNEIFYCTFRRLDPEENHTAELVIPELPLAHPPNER

On to `Cc1c(NC(=O)c2nnc([C@H](C)N3CCCC[C@H]3C(=O)O)s2)cccc1-c1cccc(NC(=O)c2nnc([C@H](C)N3CCCC[C@H]3C(=O)O)s2)c1C` [Example 17, (2S,2'S)-1,1′-((1S,1'S)-((((2,2′-dimethyl-[1,1′-biphenyl]-3,3′-diyl)bis(azanediyl))bis(carbonyl))bis(1,3,4-thiadiazole-5,2-diyl))bis(ethane-1,1-diyl))bis(piperidine-2-carboxylic acid)], for which the IC50 was less than 25 nM.

Turning to `Cc1c(Nc2nccc3cc(CN4CC(O)C4)cnc23)cccc1-c1cccc(Nc2nccc3cc(CN4CC(O)C4)cnc23)c1C` [Example 150, 1,1′-((((2,2′-dimethyl-[1,1′-biphenyl]-3,3′-diyl)bis(azanediyl))bis(1,7-naphthyridine-8,3-diyl))bis(methylene))bis(azetidin-3-ol)], the IC50 is less than 25 nM.

Take `Cc1c(NC(=O)c2nc3c(s2)CN(CCO)CC3)cccc1-c1cccc(NC(=O)c2nc3c(s2)CN(CCO)CC3)c1C` [Example 82, N,N′-(2,2′-dimethyl-[1,1′-biphenyl]-3,3′-diyl)bis(5-(2-hydroxyethyl)-4,5,6,7-tetrahydrothiazolo[5,4-c]pyridine-2-carboxamide)]: the IC50 is less than 25 nM.

As for `O=C(c1nc2c(s1)CN(CCOCCO)CC2)N1CCc2c(-c3cccc4c3CCN4C(=O)c3nc4c(s3)CN(CCOCCO)CC4)cccc21` [Example 120, [4,4′-biindoline]-1,1′-diylbis((5-(2-(2-hydroxyethoxy)ethyl)-4,5,6,7-tetrahydrothiazolo[5,4-c]pyridin-2-yl)methanone)], the IC50 is less than 25 nM.

As for “1,1′-bis((6,7-dihydro-4H-512-thiazolo[5,4-c]pyridin-2-yl)methyl)-4,4′-biindoline [Example 46]”, the IC50 is less than 25 nM.

Turning to `O=C(Nc1cccc(-c2cccc(Nc3nccc4cc(CNCCO)cnc34)c2Cl)c1Cl)c1ncc(CNCCO)s1` [Example 98, N-(2,2′-dichloro-3′-((3-(((2-hydroxyethyl)amino)methyl)-1,7-naphthyridin-8-yl)amino)-[1,1′-biphenyl]-3-yl)-5-(((2-hydroxyethyl)amino)methyl)thiazole-2-carboxamide], the IC50 is less than 25 nM.

With `Cc1nc(C(=O)N2CCc3c(-c4cccc(NC(=O)c5ncc(CN(C)CCO)s5)c4)cccc32)sc1CN(C)C` [Example 114, N-(3-(1-(5-((dimethylamino)methyl)-4-methylthiazole-2-carbonyl)indolin-4-yl)phenyl)-5-(((2-hydroxyethyl)(methyl)amino)methyl)thiazole-2-carboxamide], the IC50 is less than 25 nM.

Turning to `Cc1ccc(-c2ccc(C)c(NC(=O)c3nc4c(s3)CNCC4)c2C)c(C)c1NC(=O)c1nc2c(s1)CNCC2` [Example 94, N,N′-(2,2′,4,4′-tetramethyl-[1,1′-biphenyl]-3,3′-diyl)bis(4,5,6,7-tetrahydrothiazolo[5,4-c]pyridine-2-carboxamide)], the IC50 is less than 25 nM.

As to `Cc1c(NC(=O)c2nnc([C@H](C)N)s2)cccc1-c1cccc(NC(=O)c2nnc([C@H](C)N)s2)c1C` [Example 31, N,N′-(2,2′-dimethyl-[1,1′-biphenyl]-3,3′-diyl)bis(5-((S)-1-aminoethyl)-1,3,4-thiadiazole-2-carboxamide)], the IC50 was less than 25 nM.

With `COC(=O)NCC1(N2CCc3nc(C(=O)N4CCc5c(-c6cccc7c6CCN7C(=O)c6nc7c(s6)CN(C6(CNC(=O)OC)CC6)CC7)cccc54)sc3C2)CC1` [Example 131, dimethyl (((([4,4′-biindoline]-1,1′-dicarbonyl)bis(6,7-dihydrothiazolo[5,4-c]pyridine-2,5(4H)-diyl))bis(cyclopropane-1,1-diyl))bis(methylene))dicarbamate], the IC50 lay within 25 to 100 nM.

Take `Cc1c(NC(=O)c2cn3c(n2)CNCC3)cccc1-c1cccc(NC(=O)c2cc3c(s2)CNCC3)c1C` [Example 42, N-(2,2′-dimethyl-3′-(5,6,7,8-tetrahydroimidazo[1,2-a]pyrazine-2-carboxamido)-[1,1′-biphenyl]-3-yl)-4,5,6,7-tetrahydrothieno[2,3-c]pyridine-2-carboxamide]: the IC50 is less than 25 nM.

Regarding `COP(=O)(CN1CCc2nc(C(=O)N3CCc4c(-c5cccc6c5CCN6C(=O)c5nc6c(s5)CN(CP(=O)(OC)OC)CC6)cccc43)sc2C1)OC` [Example 123, dimethyl ((2-(1′-(5-((dimethoxyphosphoryl)methyl)-4,5,6,7-tetrahydrothiazolo[5,4-c]pyridine-2-carbonyl)-[4,4′-biindoline]-1-carbonyl)-6,7-dihydrothiazolo[5,4-c]pyridin-5(4H)-yl)methyl)phosphonate], the IC50 was less than 25 nM.

For the molecule `Cc1c(NC(=O)c2ccc3c(n2)CCNC3)cccc1-c1cccc(NC(=O)c2ccc3c(n2)CCN(C)C3)c1C` [Example 185, N-(2,2′-dimethyl-3′-(5,6,7,8-tetrahydro-1,6-naphthyridine-2-carboxamido)-[1,1′-biphenyl]-3-yl)-6-methyl-5,6,7,8-tetrahydro-1,6-naphthyridine-2-carboxamide], the IC50 is less than 25 nM.

Consider `CNC(=O)CN1CCc2nc(C(=O)N3CCc4c(-c5cccc6c5CCN6C(=O)c5nc6c(s5)CN(CC(=O)NC)CC6)cccc43)sc2C1` [Example 105, 2,2′-(([4,4′-biindoline]-1,1′-dicarbonyl)bis(6,7-dihydrothiazolo[5,4-c]pyridine-2,5(4H)-diyl))bis(N-methylacetamide)], for which the IC50 was less than 25 nM.

Regarding `NC(=O)CN1C2CCC1c1sc(C(=O)N3CCc4c(-c5cccc6c5CCN6C(=O)c5nc6c(s5)C5CCC(C6)N5CC(=O)O)cccc43)nc1C2` (stereo not drawn) [Example 111, 2-(2-(1′-(9-(2-amino-2-oxoethyl)-5,6,7,8-tetrahydro-4H-5,8-epiminocyclohepta[d]thiazole-2-carbonyl)-[4,4′-biindoline]-1-carbonyl)-5,6,7,8-tetrahydro-4H-5,8-epiminocyclohepta[d]thiazol-9-yl)acetic acid], the half-inhibitory concentration (IC50) is less than 25 nM.

Turning to `CS(=O)(=O)NC(=O)C1(N2CCc3nc(C(=O)N4CCc5c(-c6cccc7c6CCN7C(=O)c6nc7c(s6)CN(C6(C(=O)NS(C)(=O)=O)CC6)CC7)cccc54)sc3C2)CC1` [Example 129, 1,1′-(([4,4′-biindoline]-1,1′-dicarbonyl)bis(6,7-dihydrothiazolo[5,4-c]pyridine-2,5(4H)-diyl))bis(N-(methylsulfonyl)cyclopropane-1-carboxamide)], the IC50 was 25 to 100 nM.

With `Cc1c(Nc2nccc3cc(CNCC(=O)O)cnc23)cccc1-c1cccc(Nc2nccc3cc(CNCC(=O)N(C)C)cnc23)c1C` [Example 148, ((8-((3′-((3-(((2-(dimethylamino)-2-oxoethyl)amino)methyl)-1,7-naphthyridin-8-yl)amino)-2,2′-dimethyl-[1,1′-biphenyl]-3-yl)amino)-1,7-naphthyridin-3-yl)methyl)glycine], the IC50 is less than 25 nM.

Consider `Cc1c(NC(=O)c2nnc(CNC(=N)N)s2)cccc1-c1cccc(NC(=O)c2nnc(CNC(=N)N)s2)c1C` [Example 37, N,N′-(2,2′-dimethyl-[1,1′-biphenyl]-3,3′-diyl)bis(5-(guanidinomethyl)-1,3,4-thiadiazole-2-carboxamide)], for which the IC50 is less than 25 nM.

For the molecule `Cc1c(Nc2nccc3cc(CNCC(N)=O)cnc23)cccc1-c1cccc2c1CCN2C(=O)C1=NC2CCN(CC(=O)O)CC2S1` (stereo not drawn) [Example 164, 2-(2-(4-(3-((3-(((2-amino-2-oxoethyl)amino)methyl)-1,7-naphthyridin-8-yl)amino)-2-methylphenyl)indoline-1-carbonyl)-3a,6,7,7a-tetrahydrothiazolo[5,4-c]pyridin-5(4H)-yl)acetic acid], the IC50 was less than 25 nM.

As for `Cc1nc(C(=O)Nc2cccc(-c3cccc4c3CCN4C(=O)c3nc(C)c(CN[C@H](C(=O)O)C4CCOCC4)s3)c2Cl)sc1CN[C@H](C(=O)O)C1CCOCC1` [Example 61, (S)-2-((2-(3-(1-(5-(((S)-carboxy(tetrahydro-2H-pyran-4-yl)methylamino)methyl)-4-methylthiazole-2-carbonyl)indolin-4-yl)-2-chlorophenylcarbamoyl)-4-methylthiazol-5-yl)methylamino)-2-(tetrahydro-2H-pyran-4-yl)acetic acid], the IC50 is less than 25 nM.

With `CC(C)(C(=O)NS(C)(=O)=O)N1CCc2nc(C(=O)N3CCc4c(-c5cccc6c5CCN6C(=O)c5nc6c(s5)CN(C(C)(C)C(=O)NS(C)(=O)=O)CC6)cccc43)sc2C1` [Example 128, 2,2′-(([4,4′-biindoline]-1,1′-dicarbonyl)bis(6,7-dihydrothiazolo[5,4-c]pyridine-2,5(4H)-diyl))bis(2-methyl-N-(methylsulfonyl)propanamide)], the IC50 was 25 to 100 nM.

`Cc1c(NC(=O)c2nnc3n2CCNC3)cccc1-c1cccc(NC(=O)c2nnc3n2CCNC3)c1C` [Example 39, N,N′-(2,2′-dimethyl-[1,1′-biphenyl]-3,3′-diyl)bis(5,6,7,8-tetrahydro-[1,2,4]triazolo[4,3-a]pyrazine-3-carboxamide)]: the IC50 was less than 25 nM.

As for `Cc1c(NC(=O)c2nc3c(s2)CN(C(C)CO)CC3)cccc1-c1cccc(NC(=O)c2nc3c(s2)CN(C(C)CO)CC3)c1C` (stereo not drawn) [Example 45, N,N′-(2,2′-dimethyl-[1,1′-biphenyl]-3,3′-diyl)bis(5-(1-hydroxypropan-2-yl)-4,5,6,7-tetrahydrothiazolo[5,4-c]pyridine-2-carboxamide)], the IC50 is less than 25 nM.

Regarding `CN1CCc2nc(C(=O)N3CCc4c(-c5cccc6c5CCN6C(=O)c5nc6c(s5)CN(C)CC6)cccc43)sc2C1` [Example 83, [4,4′-biindoline]-1,1′-diylbis((5-methyl-4,5,6,7-tetrahydrothiazolo[5,4-c]pyridin-2-yl)methanone)], the IC50 is less than 25 nM.
